Data from paper PMC9057277 (RSC Advances, 2020).

Tests used:
recombinant human COX-2 = target: T1, recombinant human COX-2 (Homo sapiens, UniProt P35354); assay: COX Fluorescent Inhibitor Screening Assay Kit, COX-2; format: biochemical
T1 construct: purchased Cayman Chemical, Ann Arbor, MI 700100
T1 sequence (P35354 18-604): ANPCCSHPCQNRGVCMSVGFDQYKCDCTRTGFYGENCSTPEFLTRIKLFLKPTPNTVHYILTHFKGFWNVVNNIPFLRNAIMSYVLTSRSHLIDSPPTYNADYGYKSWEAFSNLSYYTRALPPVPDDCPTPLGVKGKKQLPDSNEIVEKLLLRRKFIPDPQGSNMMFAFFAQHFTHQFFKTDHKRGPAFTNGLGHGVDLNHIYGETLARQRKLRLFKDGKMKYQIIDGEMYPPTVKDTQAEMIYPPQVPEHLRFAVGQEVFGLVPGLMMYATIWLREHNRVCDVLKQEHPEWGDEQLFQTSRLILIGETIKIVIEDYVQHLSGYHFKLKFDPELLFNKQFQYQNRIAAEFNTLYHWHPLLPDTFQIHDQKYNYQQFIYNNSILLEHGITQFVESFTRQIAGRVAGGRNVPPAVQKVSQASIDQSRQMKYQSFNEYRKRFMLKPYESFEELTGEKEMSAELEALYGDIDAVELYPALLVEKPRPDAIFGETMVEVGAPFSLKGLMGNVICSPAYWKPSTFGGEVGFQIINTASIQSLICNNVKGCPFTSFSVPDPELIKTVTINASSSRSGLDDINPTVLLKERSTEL

COX-1 = tested on: COX-1; set-up: method as in PMID 21900596; conditions: 14C-based COX assay, previously reported by Uddin et al. ref 21; cited from earlier work
COX-2 = tested on: COX-2; set-up: method as in PMID 21900596; conditions: cited from earlier work
purified ovine COX-1 = target: T2, purified ovine COX-1 (Ovis aries, UniProt P05979); assay: COX Fluorescent Inhibitor Screening Assay Kit, COX-1
T2 sequence (P05979 25-600): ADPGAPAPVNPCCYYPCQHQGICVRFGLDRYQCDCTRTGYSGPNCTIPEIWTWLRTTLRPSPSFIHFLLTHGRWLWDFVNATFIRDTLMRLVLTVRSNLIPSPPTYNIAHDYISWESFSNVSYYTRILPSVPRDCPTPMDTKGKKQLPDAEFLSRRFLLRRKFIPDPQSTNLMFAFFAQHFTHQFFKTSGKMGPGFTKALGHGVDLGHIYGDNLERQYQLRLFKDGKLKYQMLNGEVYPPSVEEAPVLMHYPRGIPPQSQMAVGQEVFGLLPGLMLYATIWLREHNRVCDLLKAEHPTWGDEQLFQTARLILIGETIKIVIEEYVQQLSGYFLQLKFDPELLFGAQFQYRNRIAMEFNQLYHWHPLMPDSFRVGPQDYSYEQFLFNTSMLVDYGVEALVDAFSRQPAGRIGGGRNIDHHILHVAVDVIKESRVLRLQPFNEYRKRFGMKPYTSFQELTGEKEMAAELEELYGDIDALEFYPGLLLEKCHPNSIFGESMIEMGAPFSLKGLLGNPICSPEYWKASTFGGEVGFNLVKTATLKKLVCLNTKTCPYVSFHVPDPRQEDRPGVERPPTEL
Method: 7.4.1 COX inhibition assay
The COX inhibition potency against ovine COX-1 and human COX-2 was determined using the
fluorescence-based COX assay ’COX Fluorescent Inhibitor Screening Assay Kit‘ (catalog number
reported by us.7 In brief, as a measure of COX mediated conversion of arachidonic acid to PG H2 in the
presence of different inhibitor concentrations this assay utilizes the peroxidase component of COX and
analyzes the formation of fluorescent resorufin. All compounds were assayed in a concentration range
of 10 nM to 100 μM, and every inhibitor concentration was assayed in duplicate.
as internal control. IC50 values were estimated using a nonlinear logistic regression ﬁtting procedure
(sigmoidal dose−response model) with Prism Software.

## Cc1ccc(-c2cc(CF)nn2-c2ccc(S(C)(=O)=O)cc2)cc1 [5a]
Recombinant human COX-2
  IC50: 510 nM
Recombinant human COX-2; IC50 (COX-1)/IC50 (COX-2)
  Selectivity index: >196
COX-1
  IC50: > 4000 nM
COX-2; 14C-based COX assay, previously reported by Uddin et al. ref 21
  IC50: 600 nM
COX-2; IC50 (COX-1)/IC50 (COX-2), from values previously reported by Uddin et al. ref 21
  Selectivity index: >7
Purified ovine COX-1
  IC50: > 100000 nM
